Legend:
Type in all cases: in vivo
[1] = system: Japanese bulrush (Scirpus juncoides Roxb.); test: Test Example 1: herbicidal effect by soil application to paddy field; details: paddy field soil application; active ingredient 1,000 g per 1 hectare; wettable powder added dropwise to water surface the day after sowing; examined on the 21st day after application
In short: (§1)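 Plants were sown in flooded (3 cm) paddy soil and evaluated for herbicidal effect 21 days after soil application in a greenhouse.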

[2] = system: early watergrass (Echinochloa oryzicola Vasing); test: as above; details: paddy field soil application; active ingredient 1,000 g per 1 hectare; wettable powder added dropwise to water surface the day after sowing; examined on the 21st day after application
In short: as §1

[3] = system: heartshape false pickerelweed (Monochoria vaginalis (Burm.f.) C.Presl); test: as above; details: paddy field soil application; active ingredient 1,000 g per 1 hectare; wettable powder added dropwise to water surface the day after sowing; examined on the 21st day after application
In short: as §1

[4] = system: barnyardgrass (Echinochloa crus-galli (L.) P. Beauv. var. crus-galli); test: Test Example 2: herbicidal effect by soil application to upland field; details: soil surface spray, upland field soil, 1,000 g active ingredient per hectare, 21st day after application
In short: (§2)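 Seeds were sown in field soil, covered, and the soil surface sprayed with a water-diluted wettable powder at 1,000 g active ingredient per hectare in 1,000 L/ha. Plants grew in a greenhouse, and herbicidal effect was rated against a standard scale 21 days after application.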

[5] = system: green foxtail (Setaria viridis (L.) P. Beauv.); test: as above; details: soil surface spray, upland field soil, 1,000 g active ingredient per hectare, 21st day after application
In short: as §2

[6] = system: slender amaranth (Amaranthus viridis L.); test: as above; details: soil surface spray, upland field soil, 1,000 g active ingredient per hectare, 21st day after application
In short: as §2

[7] = system: velvetleaf (Abutilon theophrasti medicus); test: as above; details: soil surface spray, upland field soil, 1,000 g active ingredient per hectare, 21st day after application
In short: as §2

[8] = system: barnyardgrass (Echinochloa crus-galli (L.) P. Beauv. var. crus-galli); test: Test Example 3: herbicidal effect by application to upland field (foliage treatment); details: 14th day after application; for herbicidal effect (index), Barnyardgrass: foliage treatment, plants grown two weeks, 1,000 g active ingredient per hectare; for herbicidal effect, Barnyardgrass: foliage treatment, 1,000 g active ingredient per 1 hectare, greenhouse
In short: (§3)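 Upland foliage test in greenhouse pots of field soil: seedlings sprayed at two weeks post-sowing with 1,000 g/ha active ingredient (wettable powder, 1,000 L water/ha). Scored 14 d after application.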

[9] = system: green foxtail (Setaria viridis (L.) P. Beauv.); test: as above; details: 14th day after application; for herbicidal effect (index), Green Foxtail: foliage treatment, plants grown two weeks, 1,000 g active ingredient per hectare; for herbicidal effect, Green Foxtail: foliage treatment, 1,000 g active ingredient per 1 hectare, greenhouse
In short: as §3

[10] = system: slender amaranth (Amaranthus viridis L.); test: as above; details: 14th day after application; for herbicidal effect (index), Slender Amaranth: foliage treatment, plants grown two weeks, 1,000 g active ingredient per hectare; for herbicidal effect, Slender Amaranth: foliage treatment, 1,000 g active ingredient per 1 hectare, greenhouse
In short: as §3

[11] = system: velvetleaf (Abutilon theophrasti medicus); test: as above; details: 14th day after application; for herbicidal effect (index), Velvetleaf: foliage treatment, plants grown two weeks, 1,000 g active ingredient per hectare; for herbicidal effect, Velvetleaf: foliage treatment, 1,000 g active ingredient per 1 hectare, greenhouse
In short: as §3

Row | Structure (SMILES) | herbicidal effect, Scirpus juncoides Roxb. [1] | herbicidal effect, Echinochloa oryzicola Vasing [2] | herbicidal effect, Monochoria vaginalis (Burm. f.) C. Presl [3] | herbicidal effect (index), Barnyardgrass [4] | herbicidal effect (index), Green Foxtail [5] | herbicidal effect (index), Slender Amaranth [6] | herbicidal effect (index), Velvetleaf [7] | herbicidal effect (index), Barnyardgrass [8] | herbicidal effect (index), Green Foxtail [9] | herbicidal effect (index), Slender Amaranth [10] | herbicidal effect (index), Velvetleaf [11] | herbicidal effect, Barnyardgrass [8] | herbicidal effect, Green Foxtail [9] | herbicidal effect, Slender Amaranth [10] | herbicidal effect, Velvetleaf [11]
1 | O=C1CCCC(O)=C1C(=O)c1ccc(C(F)(F)F)n(C2CCCC2)c1=O [I-18] | 5 (90% or more of herbicidal effect and crop phytotoxicity) | 5 (90% or more of herbicidal effect and crop phytotoxicity) | 5 (90% or more of herbicidal effect and crop phytotoxicity) | 5 (90% or more of herbicidal effect and crop phytotoxicity) | 5 (90% or more of herbicidal effect and crop phytotoxicity) | 5 (90% or more of herbicidal effect and crop phytotoxicity) | 5 (90% or more of herbicidal effect and crop phytotoxicity) | 5 (90% or more of herbicidal effect and crop phytotoxicity) | 5 (90% or more of herbicidal effect and crop phytotoxicity) | 5 (90% or more of herbicidal effect and crop phytotoxicity) | 5 (90% or more of herbicidal effect and crop phytotoxicity) | – | – | – | –
2 | COC(C)Cn1c(C(F)(F)F)ccc(C(=O)C2=C(O)C3CCC(C3)C2=O)c1=O (centres unmarked) [III-24] | 5 (90% or more of herbicidal effect and crop phytotoxicity) | 5 (90% or more of herbicidal effect and crop phytotoxicity) | 5 (90% or more of herbicidal effect and crop phytotoxicity) | 5 (90% or more of herbicidal effect and crop phytotoxicity) | 5 (90% or more of herbicidal effect and crop phytotoxicity) | 5 (90% or more of herbicidal effect and crop phytotoxicity) | 5 (90% or more of herbicidal effect and crop phytotoxicity) | – | – | – | – | 5 (90% or more of herbicidal effect and crop phytotoxicity) | 5 (90% or more of herbicidal effect and crop phytotoxicity) | 5 (90% or more of herbicidal effect and crop phytotoxicity) | 5 (90% or more of herbicidal effect and crop phytotoxicity)
3 | CON=CCn1c(C(F)(F)F)ccc(C(=O)C2=C(O)CCCC2=O)c1=O [I-133] | 5 (90% or more of herbicidal effect and crop phytotoxicity) | 5 (90% or more of herbicidal effect and crop phytotoxicity) | 5 (90% or more of herbicidal effect and crop phytotoxicity) | 5 (90% or more of herbicidal effect and crop phytotoxicity) | 4 (70 to less than 90% of herbicidal effect and crop phytotoxicity) | 5 (90% or more of herbicidal effect and crop phytotoxicity) | 5 (90% or more of herbicidal effect and crop phytotoxicity) | – | – | – | – | 5 (90% or more of herbicidal effect and crop phytotoxicity) | 4 (70 to less than 90% of herbicidal effect and crop phytotoxicity) | 5 (90% or more of herbicidal effect and crop phytotoxicity) | 5 (90% or more of herbicidal effect and crop phytotoxicity)
4 | CCCS(=O)(=O)Cn1c(C(F)(F)F)ccc(C(=O)C2=C(O)CCCC2=O)c1=O [I-51] | 5 (90% or more of herbicidal effect and crop phytotoxicity) | 5 (90% or more of herbicidal effect and crop phytotoxicity) | 5 (90% or more of herbicidal effect and crop phytotoxicity) | 5 (90% or more of herbicidal effect and crop phytotoxicity) | 5 (90% or more of herbicidal effect and crop phytotoxicity) | 5 (90% or more of herbicidal effect and crop phytotoxicity) | 5 (90% or more of herbicidal effect and crop phytotoxicity) | 5 (90% or more of herbicidal effect and crop phytotoxicity) | 5 (90% or more of herbicidal effect and crop phytotoxicity) | 5 (90% or more of herbicidal effect and crop phytotoxicity) | 5 (90% or more of herbicidal effect and crop phytotoxicity) | – | – | – | –
5 | O=C1CCCC(O)=C1C(=O)c1ccc(C(F)F)n(-c2ccccc2)c1=O [I-223] | 5 (90% or more of herbicidal effect and crop phytotoxicity) | 5 (90% or more of herbicidal effect and crop phytotoxicity) | 5 (90% or more of herbicidal effect and crop phytotoxicity) | 5 (90% or more of herbicidal effect and crop phytotoxicity) | 5 (90% or more of herbicidal effect and crop phytotoxicity) | 5 (90% or more of herbicidal effect and crop phytotoxicity) | 5 (90% or more of herbicidal effect and crop phytotoxicity) | – | – | – | – | 5 (90% or more of herbicidal effect and crop phytotoxicity) | 5 (90% or more of herbicidal effect and crop phytotoxicity) | 5 (90% or more of herbicidal effect and crop phytotoxicity) | 5 (90% or more of herbicidal effect and crop phytotoxicity)
6 | C[S+]([O-])CCCn1c(C(F)(F)F)ccc(C(=O)C2=C(O)CCCC2=O)c1=O (centres unmarked) [I-70] | 5 (90% or more of herbicidal effect and crop phytotoxicity) | 5 (90% or more of herbicidal effect and crop phytotoxicity) | 5 (90% or more of herbicidal effect and crop phytotoxicity) | 5 (90% or more of herbicidal effect and crop phytotoxicity) | 5 (90% or more of herbicidal effect and crop phytotoxicity) | 5 (90% or more of herbicidal effect and crop phytotoxicity) | 5 (90% or more of herbicidal effect and crop phytotoxicity) | 5 (90% or more of herbicidal effect and crop phytotoxicity) | 5 (90% or more of herbicidal effect and crop phytotoxicity) | 5 (90% or more of herbicidal effect and crop phytotoxicity) | 5 (90% or more of herbicidal effect and crop phytotoxicity) | – | – | – | –
7 | O=C1CCCC(O)=C1C(=O)c1ccc(C(F)(F)F)n(-c2cccc([N+](=O)[O-])c2)c1=O [I-87] | 5 (90% or more of herbicidal effect and crop phytotoxicity) | 5 (90% or more of herbicidal effect and crop phytotoxicity) | 5 (90% or more of herbicidal effect and crop phytotoxicity) | 5 (90% or more of herbicidal effect and crop phytotoxicity) | 5 (90% or more of herbicidal effect and crop phytotoxicity) | 5 (90% or more of herbicidal effect and crop phytotoxicity) | 5 (90% or more of herbicidal effect and crop phytotoxicity) | 5 (90% or more of herbicidal effect and crop phytotoxicity) | 5 (90% or more of herbicidal effect and crop phytotoxicity) | 5 (90% or more of herbicidal effect and crop phytotoxicity) | 5 (90% or more of herbicidal effect and crop phytotoxicity) | – | – | – | –

From patent US8076487B2, “Pyridone derivative and herbicide” (Kumiai Chemical Industry Co., Ltd., priority 2006, dated 2011)
